In this series the test system is CCRIS mutagenicity, Ames/micronucleus/aberration tests. The series is described as follows: CCRIS mutagenicity studies.
[1] abbreviates: Test System: AMES SALMONELLA TYPHIMURIUM, Strain/Indicator: TA98, Metabolic Activation: NONE, Method: STANDARD PLATE.
Where [2] appears, read: Test System: AMES SALMONELLA TYPHIMURIUM, Strain/Indicator: TA100, Metabolic Activation: NONE, Method: STANDARD PLATE.
Setting [3] is: Test System: AMES SALMONELLA TYPHIMURIUM, Strain/Indicator: TA100, Metabolic Activation: RAT, LIVER, S-9, AROCLOR 1254, Method: STANDARD PLATE.
Setting [4] is: Test System: AMES SALMONELLA TYPHIMURIUM, Strain/Indicator: TA98, Metabolic Activation: RAT, LIVER, S-9, AROCLOR 1254, Method: STANDARD PLATE.

The source made the active and inactive calls. How the calls were made is not given here.

`O=C1c2cccc(O)c2C(=O)c2c(O)cc(CO)cc21`: the mutagenic call is, setting by setting: (Test System: AMES SALMONELLA TYPHIMURIUM, Strain/Indicator: TA97A, Metabolic Activation: NONE, Method: STANDARD PLATE) “active; positive”; (Test System: AMES SALMONELLA TYPHIMURIUM, Strain/Indicator: TA97A, Metabolic Activation: RAT, LIVER, S-9, AROCLOR 1254, Method: STANDARD PLATE) “active; positive”; under setting [1], “active; positive”; (Test System: AMES SALMONELLA TYPHIMURIUM, Strain/Indicator: TA98, Metabolic Activation: RAT, LIVER, S-9, PCB, Method: PREINCUBATION) “inactive; negative”; (Test System: AMES SALMONELLA TYPHIMURIUM, Strain/Indicator: TA98, Metabolic Activation: RAT, LIVER, S-9, Method: PREINCUBATION) “active; positive”; (Test System: AMES SALMONELLA TYPHIMURIUM, Strain/Indicator: TA100, Metabolic Activation: NONE, Method: PREINCUBATION) “inactive; negative”. The mutagenic call is “inactive; negative” under setting [2]; “inactive; negative” under setting [3]; “active; positive” (Test System: AMES SALMONELLA TYPHIMURIUM, Strain/Indicator: TA100, Metabolic Activation: RAT, LIVER, S-9, PCB, Method: PREINCUBATION); “inactive; negative” (Test System: AMES SALMONELLA TYPHIMURIUM, Strain/Indicator: TA102, Metabolic Activation: NONE, Method: STANDARD PLATE); “active; positive” (Test System: AMES SALMONELLA TYPHIMURIUM, Strain/Indicator: TA102, Metabolic Activation: RAT, LIVER, S-9, AROCLOR 1254, Method: STANDARD PLATE); “active; positive” (Test System: AMES SALMONELLA TYPHIMURIUM, Strain/Indicator: TA102, Metabolic Activation: RAT, LIVER, S-9, Method: PREINCUBATION). The mutagenic call reads like this: (Test System: AMES SALMONELLA TYPHIMURIUM, Strain/Indicator: TA1535, Metabolic Activation: NONE, Method: STANDARD PLATE) “inactive; negative”; (Test System: AMES SALMONELLA TYPHIMURIUM, Strain/Indicator: TA1535, Metabolic Activation: RAT, LIVER, S-9, AROCLOR 1254, Method: STANDARD PLATE) “inactive; negative”; (Test System: AMES SALMONELLA TYPHIMURIUM, Strain/Indicator: TA1537, Metabolic Activation: NONE, Method: PREINCUBATION) “active; positive”; (Test System: AMES SALMONELLA TYPHIMURIUM, Strain/Indicator: TA1537, Metabolic Activation: NONE, Method: STANDARD PLATE) “active; positive”; (Test System: AMES SALMONELLA TYPHIMURIUM, Strain/Indicator: TA1537, Metabolic Activation: RAT, LIVER, S-9, Method: PREINCUBATION) “active; positive”; (Test System: AMES SALMONELLA TYPHIMURIUM, Strain/Indicator: TA1538, Metabolic Activation: NONE, Method: PREINCUBATION) “active; positive”. The mutagenic call is “active; positive” (Test System: AMES SALMONELLA TYPHIMURIUM, Strain/Indicator: TA1538, Metabolic Activation: NONE, Method: STANDARD PLATE); “active; positive” (Test System: AMES SALMONELLA TYPHIMURIUM, Strain/Indicator: TA1538, Metabolic Activation: RAT, LIVER, S-9, AROCLOR 1254, Method: STANDARD PLATE); “active; positive” (Test System: AMES SALMONELLA TYPHIMURIUM, Strain/Indicator: TA1538, Metabolic Activation: RAT, LIVER, S-9, Method: PREINCUBATION); “active; positive” (Test System: AMES SALMONELLA TYPHIMURIUM, Strain/Indicator: TA1978, Metabolic Activation: NONE, Method: PREINCUBATION); “inactive; negative” (Test System: AMES SALMONELLA TYPHIMURIUM, Strain/Indicator: TA1978, Metabolic Activation: RAT, LIVER, S-9, Method: PREINCUBATION); “inactive; negative” (Test System: CHINESE HAMSTER V-79, Strain/Indicator: V-79 (HGPRT)/6-THIOGUANINE, Metabolic Activation: NONE). Further, the mutagenic call (Test System: CHINESE HAMSTER V-79, Strain/Indicator: V-79 (HPRT)/6-THIOGUANINE, Metabolic Activation: NONE) is “inactive; negative”; the mutagenic call (Test System: CHINESE HAMSTER V-79, Strain/Indicator: V-79 (HPRT)/6-THIOGUANINE, Metabolic Activation: RAT, LIVER, S-9, AROCLOR 1254) is “inactive; negative”; the mutagenic call (Test System: CHINESE HAMSTER V-79, Strain/Indicator: V-79/8-AZAGUANINE, Metabolic Activation: NONE, Method: STANDARD PLATE) was “active; positive”; the mutagenic call (Test System: UDS RAT HEPATOCYTES, Strain/Indicator: THY INCORP, Metabolic Activation: NONE, Method: AUTORADIOGRAPHY) was “inactive; negative”; the mutagenic call (Test System: UDS RAT HEPATOCYTES, Strain/Indicator: THY INCORP, Metabolic Activation: NONE, Method: IN VIVO-IN VITRO) was “inactive; negative”; the mutagenic call (Test System: UDS RODENT HEPATOCYTES, Strain/Indicator: THY INCORP (NON-S-PHASE), Metabolic Activation: NONE, Method: AUTORADIOGRAPHY) is “active; positive”.
With `O=[N+]([O-])c1ccc2cc(O)c3cccc4ccc1c2c43`, the mutagenic call by setting is: under setting [1], “active; positive”; under setting [4], “active; positive”.
As for `CN(C)c1ccc2nc3ccc(=[N+](C)C)cc-3sc2c1`, the mutagenic call is, setting by setting: (End Point: In vitro chromosomal aberrations, Test System: Chinese hamster ovary cells, Metabolic Activation: None) “active; positive”; (End Point: In vitro chromosomal aberrations, Test System: Chinese hamster ovary cells, Metabolic Activation: Rat, Liver, S-9, Aroclor) “active; positive”; (End Point: In vivo micronucleus, Test System: Bone marrow, Species: Mouse, Strain/Sex: B6C3F1/Male, Route: Intraperitoneal) “inactive; negative”; (End Point: In vivo micronucleus, Test System: Peripheral blood normochromatic erythrocytes, Species: Mouse, Strain/Sex: B6C3F1/Female, Route: Oral) “inactive; negative”; (End Point: In vivo micronucleus, Test System: Peripheral blood normochromatic erythrocytes, Species: Mouse, Strain/Sex: B6C3F1/Male, Route: Intraperitoneal) “inactive; negative”; (End Point: In vivo micronucleus, Test System: Peripheral blood normochromatic erythrocytes, Species: Mouse, Strain/Sex: B6C3F1/Male, Route: Oral) “inactive; negative”. For the same compound, the mutagenic call is “active; positive” (Test System: AMES SALMONELLA TYPHIMURIUM, Strain/Indicator: TA98, Metabolic Activation: HAMSTER, LIVER, S-9, AROCLOR 1254, Method: STANDARD PLATE); “inactive; negative” under setting [1]; “active; positive” under setting [4]; “active; positive” under setting [2]; “active; positive” under setting [3]; “active; positive” (Test System: Ames Salmonella typhimurium, Strain/Indicator: TA98, Metabolic Activation: Hamster, Liver, S-9, Aroclor 1254 (30%), Method: Standard plate). Also, the mutagenic call is “active; positive” (Test System: Ames Salmonella typhimurium, Strain/Indicator: TA98, Metabolic Activation: None, Method: Preincubation); “active; positive” (Test System: Ames Salmonella typhimurium, Strain/Indicator: TA98, Metabolic Activation: None, Method: Standard plate); “active; positive” (Test System: Ames Salmonella typhimurium, Strain/Indicator: TA98, Metabolic Activation: Rat, Liver, S-9, Aroclor 1254 (10%), Method: Preincubation); “active; positive” (Test System: Ames Salmonella typhimurium, Strain/Indicator: TA98, Metabolic Activation: Rat, Liver, S-9, Aroclor 1254 (30%), Method: Standard plate); “active; positive” (Test System: Ames Salmonella typhimurium, Strain/Indicator: TA100, Metabolic Activation: Hamster, Liver, S-9, Aroclor 1254 (30%), Method: Standard plate); “active; positive” (Test System: Ames Salmonella typhimurium, Strain/Indicator: TA100, Metabolic Activation: None, Method: Preincubation). Moreover, the mutagenic call is “inactive; negative (ntp describes as equivocal)” (Test System: Ames Salmonella typhimurium, Strain/Indicator: TA100, Metabolic Activation: None, Method: Standard plate); “active; positive” (Test System: Ames Salmonella typhimurium, Strain/Indicator: TA100, Metabolic Activation: Rat, Liver, S-9, Aroclor 1254 (10%), Method: Preincubation); “active; positive” (Test System: Ames Salmonella typhimurium, Strain/Indicator: TA100, Metabolic Activation: Rat, Liver, S-9, Aroclor 1254 (30%), Method: Standard plate); “active; positive” (Test System: E. coli, Strain/Indicator: WP uvrA/pKM101, Metabolic Activation: None, Method: Preincubation); “active; positive” (Test System: E. coli, Strain/Indicator: WP uvrA/pKM101, Metabolic Activation: Rat, Liver, S-9, Aroclor 1254 (10%), Method: Preincubation); “active; positive” (Test System: MOUSE LYMPHOMA, Strain/Indicator: L5178Y (TK+/TK-), Metabolic Activation: NONE, Method: SUSPENSION/PLATE). In addition, the mutagenic call reads like this: (Test System: MOUSE LYMPHOMA, Strain/Indicator: L5178Y (TK+/TK-), Metabolic Activation: RAT, LIVER, S-9, Method: SUSPENSION/PLATE) “active; positive”; (Test System: Mouse lymphoma, Strain/Indicator: L5178Y (tk+/tk-), Metabolic Activation: None, Method: Suspension/plate) “active; positive”; (Test System: Mouse lymphoma, Strain/Indicator: L5178Y (tk+/tk-), Metabolic Activation: Rat, Liver, S-9, Aroclor 1254, Method: Suspension/plate) “active; positive”.
With `O=[N+]([O-])c1cccc2cnsc12`, the mutagenic call under setting [2] was “active; positive”.

The values above are taken from PubChem BioAssay AID1259407 (Chemical Carcinogenesis Research Information System (CCRIS), 2018).
